From publication PMC6941124 (International Journal of Molecular Sciences, 2019)
Numbering of substitutions follows the chain as printed.

Columns and labels:
Type in all cases: biochemical
Details in all cases: inhibitor at IC50 concentration previously determined for CK1δ WT; DMSO control = 100%; adjusted to WT = 50%; mean ± SD
CK1δ R115H = biological target: T1, CK1δ R115H (Homo sapiens, UniProt P48730, R115H); experiment: in vitro kinase assay, CK1δ mutant R115H
T1 sequence (P48730 1-415 R115H): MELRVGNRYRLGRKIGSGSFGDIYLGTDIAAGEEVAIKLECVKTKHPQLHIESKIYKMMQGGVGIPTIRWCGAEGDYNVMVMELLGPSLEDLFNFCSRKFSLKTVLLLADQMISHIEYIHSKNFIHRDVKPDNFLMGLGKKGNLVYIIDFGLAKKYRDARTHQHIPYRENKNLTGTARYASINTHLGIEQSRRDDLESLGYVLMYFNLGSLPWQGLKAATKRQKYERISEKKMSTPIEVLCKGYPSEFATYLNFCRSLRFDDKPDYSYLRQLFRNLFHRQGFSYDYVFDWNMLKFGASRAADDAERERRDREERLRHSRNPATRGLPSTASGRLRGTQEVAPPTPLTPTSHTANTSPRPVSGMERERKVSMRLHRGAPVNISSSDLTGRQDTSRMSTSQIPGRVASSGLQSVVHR
Protocol: (§1) Overexpression and purification of GST-CK1δ fusion proteins, either wild type or mutant, were performed as described previously.
(§2) Each kinase assay reaction was performed in kinase buffer (25 mM Tris-HCl (pH 7.5), 10 μM ATP, 10 mM MgCl2, 100 μM EDTA) in presence of purified GST-CK1δ kinase as source of enzyme (either wild type or mutant), an assay-specific substrate (α-casein, GST-p53^1−64, or GST-β-catenin^1−181), and radiolabeled ATP (2 μCi [γ-^32P]-ATP). For performing Michaelis–Menten analysis increasing substrate concentrations were used (α-casein: 0.39−25 μM; GST-p53^1−64: 0.09−1.87 μM; GST-β-catenin^1−181: 0.07−1.32 μM). For biological evaluation of small molecule inhibitors (SMIs), each inhibitor compound was either tested at 10 μM concentration for initial screening or by using a dilution series (0.005−10 µM) for determination of IC50 values. DMSO was used as control. Reactions were incubated for 30 min at 30 °C and reactions were stopped using 5x SDS-loading buffer (250 mM Tris-HCl [pH 6.8], 25% (v/v) β-mercaptoethanol (MSH), 50% (v/v) glycerol, 10% (w/v) SDS, 0.5% (w/v) bromphenol blue). Subsequently, samples were separated by SDS-PAGE using 12.5% acrylamide gels, stained with Coomassie, and phosphorylated substrates were visualized on X-ray film. Incorporation of radiolabeled phosphate was quantified by scintillation counting of Coomassie-stained substrate bands. Defined dilutions of the reaction master mix were counted as well in order to convert results obtained as counts per minute (CPM) to units of transferred phosphate in pmol/min. Michaelis–Menten analysis was performed using GraphPad Prism 6 (GraphPad Software, San Diego, CA, USA).

CK1δ R127L = biological target: T2, CK1δ R127L (Homo sapiens, UniProt P48730, R127L); experiment: in vitro kinase assay, CK1δ mutant R127L
T2 sequence (P48730 1-415 R127L): T1 sequence (P48730 1-415 R115H) with H115R, R127L
Protocol: as §1, §2

CK1δ R127Q = biological target: T3, CK1δ R127Q (Homo sapiens, UniProt P48730, R127Q); experiment: in vitro kinase assay, CK1δ mutant R127Q
T3 sequence (P48730 1-415 R127Q): T1 sequence (P48730 1-415 R115H) with H115R, R127Q
Protocol: as §1, §2

CK1δ R168H = biological target: T4, CK1δ R168H (Homo sapiens, UniProt P48730, R168H); experiment: in vitro kinase assay, CK1δ mutant R168H
T4 sequence (P48730 1-415 R168H): T1 sequence (P48730 1-415 R115H) with H115R, R168H
Protocol: as §1, §2

CK1δ Q399* = biological target: T5, CK1δ Q399* (Homo sapiens, UniProt P48730); experiment: in vitro kinase assay, CK1δ mutant Q399*
T5 sequence (P48730 1-398): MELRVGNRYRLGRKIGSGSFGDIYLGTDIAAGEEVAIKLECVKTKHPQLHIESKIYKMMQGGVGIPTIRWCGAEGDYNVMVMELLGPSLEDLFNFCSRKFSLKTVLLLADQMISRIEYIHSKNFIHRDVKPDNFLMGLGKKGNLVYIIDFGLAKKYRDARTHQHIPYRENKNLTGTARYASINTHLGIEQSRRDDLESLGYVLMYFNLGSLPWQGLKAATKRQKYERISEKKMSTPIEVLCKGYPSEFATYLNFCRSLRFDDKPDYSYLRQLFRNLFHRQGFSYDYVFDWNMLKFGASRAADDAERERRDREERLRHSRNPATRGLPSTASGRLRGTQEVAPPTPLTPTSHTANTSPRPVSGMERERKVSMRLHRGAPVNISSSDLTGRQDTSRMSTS
Protocol: as §1, §2

Compound	Residual activity of CK1δ R115H (CK1δ R115H) [%]	Residual activity of CK1δ R127L (CK1δ R127L) [%]	Residual activity of CK1δ R127Q (CK1δ R127Q) [%]	Residual activity of CK1δ R168H (CK1δ R168H) [%]	Residual activity of CK1δ Q399* (CK1δ Q399*) [%]
O=C(Nc1nc2ccc(C(F)(F)F)cc2[nH]1)c1csc(NC(=O)c2ccccc2OC(F)(F)F)n1 [Bischof-5]	36 ± 10	50 ± 11	24 ± 8	30 ± 16	75 ± 30
Cc1ccc2nc(NC(=O)CSc3nc4c(c(=O)n3-c3ccccc3)SCC4)sc2c1 [IWP-2]	71 ± 34	42 ± 9	37 ± 5	50 ± 9	53 ± 27
COc1ccccc1-n1c(SCC(=O)Nc2nc3ccc(C)cc3s2)nc2c(c1=O)SCC2 [IWP-4]	46 ± 5	48 ± 10	36 ± 11	61 ± 19	96 ± 79
